According to EP0252983B1, “SALTS OF N-(VINYLOXIETHYL)DITHIOCARBAMIC ACID, METHOD OF OBTAINING THEREOF AND […] ON THEM” (priority 1985, dated 1987):

How the values were obtained:
[1] = Solubility in water (descriptive); format: physicochemical
Acremonium charticola = assay: Mycelial growth inhibition on agar (contact activity); format: cell-based; settings: Tabelle 11
Penicillium charlesii = assay: as above; format: cell-based; settings: Tabelle 11
Experimental: (§1) Die Prüfungen werden nach dem Verfahren zur Ermittlung der Kontaktaktivität durchgeführt. Man verwendet das in Wasser gelöste Kalium-N-(vinyloxyäthyl)dithiocarbamat, führt es in ein Nährmedium ein und vergießt auf Petri-Schalen. Nach 24 Stunden wird mit Pilzmyzelium nach einem Stichverfahren geimpft. Dann temperiert man die Schalen innerhalb von 5 Tagen bei einer zwischen 24 und 26 °C liegenden Temperatur und mißt den Durchmesser von Pilzkolonien, ermittelt den Prozentsatz der Hemmung des Myzelwachstums (S) ausgehend von Angaben am 5. Tag nach der Abbott-Formel [drawing 13] worin dc für den Durchmesser der Pilzkolonien, de für den Durchmesser von Pilzkolonien in der Schale stehen, wo ein die zu prüfenden Stoffe enthaltendes Medium vorhanden ist. Dieses Verfahren zur Ermittlung der mikrobiologischen Aktivität ist in anderen Beispielen verwendet.
(§2) Die Pilzkulturen werden auf Würzeagar gezüchtet. Ergebnisse, erhalten bei der Prüfung der fungiziden Aktivität gegen reine Kulturen von Mikroorganismen, welche Bioschädigungen hervorrufen, sind in der Tabelle 1 dargestellt.

Geotrichum candidum Link = assay: as above; format: cell-based; settings: Tabelle 11
Experimental: as §1, §2

Walrotiela subiculesa = assay: as above; format: cell-based; settings: Tabelle 11
Experimental: as §1, §2

Penicillium chrysogenum = assay: as above; format: cell-based; settings: Tabelle 11
Experimental: as §1, §2

[2] = Storage stability (descriptive); format: physicochemical
Pseudomonas = assay: Bactericidal activity on agar (concentration of complete growth inhibition); format: cell-based; settings: % bezogen auf den Wirkstoff; am 5. Tag
Experimental: (§3) Geprüft wird die bakterizide Aktivität von Kalium-, Natrium-, Zink- und Kupfersalzen der N-(Vinyloxyäthyl)dithiocarbamidsäure gegen Bakterien der Gattungen Bacillus, Micrococcus, Pseudomonas, Escherichia und Xantomonas.
(§4) Man stellt wäßrige Stofflösungen verschiedener Konzentration her, die so berechnet werden, daß die Stoffkonzentration in der Petri-Schale bei der Gabe von 1 ml Lösung in das geschmolzene Nährmedium (45 bis 50 °C) zwischen 0,003 und 25 % (bezogen auf den Wirkstoff) schwankt. Nach 18 bis 24 Stunden bringt man auf die Oberfläche des Nährmediums 0,1 ml wäßrige Suspension eintägiger reiner Kulturen von Bakterien auf und verteilt sie gleichmäßig. In Kontrollschalen verteilt sich 0,1 ml Wasser über die Oberfläche des Nährmediums. Die Inkubation erfolgt bei 37 °C innerhalb von 5 Tagen. Die Wirksamkeit der Stoffe wird nach dem Auftreten des Bakterienwachstums auf der Oberfläche des Nährmediums eingeschätzt. Die Prüfergebnisse sind in der Tabelle 13 dargestellt.

Xantomonas = assay: as above; format: cell-based; settings: % bezogen auf den Wirkstoff; am 5. Tag
Experimental: as §3, §4

Bacillus = assay: as above; format: cell-based; settings: % bezogen auf den Wirkstoff; am 5. Tag
Experimental: as §3, §4

Micrococcus = assay: as above; format: cell-based; settings: % bezogen auf den Wirkstoff; am 5. Tag
Experimental: as §3, §4

Escherichia = assay: as above; format: cell-based; settings: % bezogen auf den Wirkstoff; am 5. Tag
Experimental: as §3, §4

Acremonium cowum = assay: Mycelial growth inhibition on agar (contact activity); format: cell-based; settings: Tabelle 11
Cladosporium resinae = assay: as above; format: cell-based; settings: Tabelle 11
[3] = tested on: Cladosporium cladosporioides; assay: as above; format: cell-based; settings: Tabelle 11
[4] = Konzentration des Präparats 0,01 %
[5] = Konzentration des Präparats 0,02 %
[6] = Konzentration des Präparats 0,05 %
[7] = Konzentration des Präparats 0,10 %
[8] = Konzentration des Präparats 0,005 %

For “Kupfer-bis-(N-vinyloxyäthyldithiocarbamat)”, the “Löslichkeit in Wasser” value [1] was “unlöslich”, the Myzelhemmung in % (Acremonium charticola; [4]) was 96% and the Myzelhemmung in % (Acremonium charticola; [5]) was 100%. It also gave a Myzelhemmung in % (Acremonium charticola; [6]) of 100%, a Myzelhemmung in % (Acremonium charticola; [7]) of 100% and a Myzelhemmung in % (Acremonium charticola; [8]) of 70%. For the same substance, the Myzelhemmung in % (Penicillium charlesii; [4]) was 30%, the Myzelhemmung in % (Penicillium charlesii; [5]) was 80% and the Myzelhemmung in % (Penicillium charlesii; [6]) was 100%. It also gave a Myzelhemmung in % (Penicillium charlesii; [7]) of 100%, a Myzelhemmung in % (Penicillium charlesii; [8]) of 15% and a Myzelhemmung in % (Geotrichum candidum Link; [4]) of 100%. It also gave a Myzelhemmung in % (Geotrichum candidum Link; [5]) of 100%, a Myzelhemmung in % (Geotrichum candidum Link; [6]) of 100% and a Myzelhemmung in % (Geotrichum candidum Link; [7]) of 100%. The Myzelhemmung in % (Geotrichum candidum Link; [8]) was 100%, the Myzelhemmung in % (Walrotiela subiculesa; [4]) was 0% and the Myzelhemmung in % (Walrotiela subiculesa; [5]) was 10%. It also gave a Myzelhemmung in % (Walrotiela subiculesa; [6]) of 37%, a Myzelhemmung in % (Walrotiela subiculesa; [7]) of 100% and a Myzelhemmung in % (Walrotiela subiculesa; [8]) of 0%. The Myzelhemmung in % (Penicillium chrysogenum; [4]) was 25%, the Myzelhemmung in % (Penicillium chrysogenum; [5]) was 36% and the Myzelhemmung in % (Penicillium chrysogenum; [6]) was 70%. The Myzelhemmung in % (Penicillium chrysogenum; [7]) was 100%, the Myzelhemmung in % (Penicillium chrysogenum; [8]) was 10% and the Lagerbeständigkeit [2] was “lagerbeständig”. For the same substance, the “Konzentrationen, welche das Bakterienwachstum völlig (100 %) hemmen” value (“Konzentrationen … (100 %) hemmen” below) (Pseudomonas) was 0,15%, the “Konzentrationen … (100 %) hemmen” value (Xantomonas) was 0,15% and the “Konzentrationen … (100 %) hemmen” value (Bacillus) was 0,15%. The “Konzentrationen … (100 %) hemmen” value (Micrococcus) was 0,15%, the “Konzentrationen … (100 %) hemmen” value (Escherichia) was 0,15% and the Myzelhemmung in % (Acremonium cowum; [4]) was 100%. For the same substance, the Myzelhemmung in % (Acremonium cowum; [5]) was 100%, the Myzelhemmung in % (Acremonium cowum; [6]) was 100% and the Myzelhemmung in % (Acremonium cowum; [7]) was 100%. It also gave a Myzelhemmung in % (Acremonium cowum; [8]) of 100%, a Myzelhemmung in % (Cladosporium resinae; [4]) of 50% and a Myzelhemmung in % (Cladosporium resinae; [5]) of 80%. For the same substance, the Myzelhemmung in % (Cladosporium resinae; [6]) was 90%, the Myzelhemmung in % (Cladosporium resinae; [7]) was 100% and the Myzelhemmung in % (Cladosporium resinae; [8]) was 34%. For the same substance, the Myzelhemmung in % [3, 4] was 36%, the Myzelhemmung in % [3, 5] was 65% and the Myzelhemmung in % [3, 6] was 80%. For the same substance, the Myzelhemmung in % [3, 7] was 100% and the Myzelhemmung in % [3, 8] was 15%.
